What follows are compounds tested on HCT-116 (assay: Cytotoxicity against human HCT116 cells after 72 hrs). Details: HCT-116, 72 h.
Format: functional, cell-based

| Structure (SMILES) | IC50 [nM] |
| --- | --- |
| CCCCCC(=O)O[C@@]12CO[C@@H]1C[C@H](O)[C@@]1(C)C(=O)[C@H](OC(C)=O)C3=C(C)[C@@H](OC(=O)[C@H](O)[C@@H](NC(=O)c4ccccc4)c4ccccc4)C[C@@](O)([C@@H](OC(=O)c4ccccc4)[C@H]21)C3(C)C | 6.03 |
| C=CC(=O)O[C@@]12CO[C@@H]1C[C@H](O)[C@@]1(C)C(=O)[C@H](OC(C)=O)C3=C(C)[C@@H](OC(=O)[C@H](O)[C@@H](NC(=O)c4ccccc4)c4ccccc4)C[C@@](O)([C@@H](OC(=O)c4ccccc4)[C@H]21)C3(C)C | 6.03 |
| CC(=O)O[C@H]1C(=O)[C@@]2(C)[C@H]([C@H](OC(=O)c3ccccc3)[C@]3(O)C[C@H](OC(=O)[C@H](O)[C@@H](NC(=O)c4ccccc4)c4ccccc4)C(C)=C1C3(C)C)[C@]1(OC(=O)c3ccccc3)CO[C@@H]1C[C@@H]2O | 407 |
| CC(=O)O[C@H]1C(=O)[C@@]2(C)[C@H]([C@H](OC(=O)c3ccccc3)[C@]3(O)C[C@H](OC(=O)[C@H](O)[C@@H](NC(=O)c4ccccc4)c4ccccc4)C(C)=C1C3(C)C)[C@]1(OC(=O)C3CCCC3)CO[C@@H]1C[C@@H]2O | 2 |
| CCCC(=O)O[C@@]12CO[C@@H]1C[C@H](O)[C@@]1(C)C(=O)[C@H](OC(C)=O)C3=C(C)[C@@H](OC(=O)[C@H](O)[C@@H](NC(=O)c4ccccc4)c4ccccc4)C[C@@](O)([C@@H](OC(=O)c4ccccc4)[C@H]21)C3(C)C | 1.1 |
| CC(=O)O[C@H]1C(=O)[C@@]2(C)[C@H]([C@H](OC(=O)c3ccccc3)[C@]3(O)C[C@H](OC(=O)[C@H](O)[C@@H](NC(=O)c4ccccc4)c4ccccc4)C(C)=C1C3(C)C)[C@]1(OC(=O)C3CCC3)CO[C@@H]1C[C@@H]2O | 1.51 |
| CCCOC(=O)O[C@@]12CO[C@@H]1C[C@H](O)[C@@]1(C)C(=O)[C@H](OC(C)=O)C3=C(C)[C@@H](OC(=O)[C@H](O)[C@@H](NC(=O)c4ccccc4)c4ccccc4)C[C@@](O)([C@@H](OC(=O)c4ccccc4)[C@H]21)C3(C)C | 2.57 |
| CC(=O)O[C@H]1C(=O)[C@@]2(C)[C@H]([C@H](OC(=O)c3ccccc3)[C@]3(O)C[C@H](OC(=O)[C@H](O)[C@@H](NC(=O)c4ccccc4)c4ccccc4)C(C)=C1C3(C)C)[C@]1(OC(=O)CF)CO[C@@H]1C[C@@H]2O | 7.08 |
| CC(=O)O[C@H]1C(=O)[C@@]2(C)[C@H]([C@H](OC(=O)c3ccccc3)[C@]3(O)C[C@H](OC(=O)[C@H](O)[C@@H](NC(=O)c4ccccc4)c4ccccc4)C(C)=C1C3(C)C)[C@]1(OC(=O)C(Cl)(Cl)Cl)CO[C@@H]1C[C@@H]2O | 3.98 |
| C=C(C)C(=O)O[C@@]12CO[C@@H]1C[C@H](O)[C@@]1(C)C(=O)[C@H](OC(C)=O)C3=C(C)[C@@H](OC(=O)[C@H](O)[C@@H](NC(=O)c4ccccc4)c4ccccc4)C[C@@](O)([C@@H](OC(=O)c4ccccc4)[C@H]21)C3(C)C | 4.47 |
| CC(=O)O[C@H]1C(=O)[C@@]2(C)[C@H]([C@H](OC(=O)c3ccccc3)[C@]3(O)C[C@H](OC(=O)[C@H](O)[C@@H](NC(=O)c4ccccc4)c4ccccc4)C(C)=C1C3(C)C)[C@]1(OC(=O)C(C)C)CO[C@@H]1C[C@@H]2O | 5.01 |
| COC(=O)O[C@@]12CO[C@@H]1C[C@H](O)[C@@]1(C)C(=O)[C@H](OC(C)=O)C3=C(C)[C@@H](OC(=O)[C@H](O)[C@@H](NC(=O)c4ccccc4)c4ccccc4)C[C@@](O)([C@@H](OC(=O)c4ccccc4)[C@H]21)C3(C)C [BMS-188797] | 2 |
| C/C=C/C(=O)O[C@@]12CO[C@@H]1C[C@H](O)[C@@]1(C)C(=O)[C@H](OC(C)=O)C3=C(C)[C@@H](OC(=O)[C@H](O)[C@@H](NC(=O)c4ccccc4)c4ccccc4)C[C@@](O)([C@@H](OC(=O)c4ccccc4)[C@H]21)C3(C)C | 2.29 |
| CCC(=O)O[C@@]12CO[C@@H]1C[C@H](O)[C@@]1(C)C(=O)[C@H](OC(C)=O)C3=C(C)[C@@H](OC(=O)[C@H](O)[C@@H](NC(=O)c4ccccc4)c4ccccc4)C[C@@](O)([C@@H](OC(=O)c4ccccc4)[C@H]21)C3(C)C | 2 |
| CC(=O)O[C@H]1C(=O)[C@@]2(C)[C@H]([C@H](OC(=O)c3ccccc3)[C@]3(O)C[C@H](OC(=O)[C@H](O)[C@@H](NC(=O)c4ccccc4)c4ccccc4)C(C)=C1C3(C)C)[C@]1(OC(=O)NC3CCC3)CO[C@@H]1C[C@@H]2O | 9.12 |
| CCOC(=O)O[C@@]12CO[C@@H]1C[C@H](O)[C@@]1(C)C(=O)[C@H](OC(C)=O)C3=C(C)[C@@H](OC(=O)[C@H](O)[C@@H](NC(=O)c4ccccc4)c4ccccc4)C[C@@](O)([C@@H](OC(=O)c4ccccc4)[C@H]21)C3(C)C | 1 |

Reference: ChEMBL document CHEMBL1157046, “QSAR modeling of taxane analogues against colon cancer” (Eur J Med Chem, 2010)
